Measured values from PubChem BioAssay AID1996.
Converted amounts (≈) assume the structure as drawn.

Settings: buffer; pH 7.4; 200.0 µM

Row | Compound | solubility kinetic [µg/mL]
1 | CCCc1cc(C(=O)Nc2ccc(C(=O)OC)cc2)cs1 | < 0.6
2 | Cc1onc(-c2c(F)cccc2Cl)c1C(=O)NCCO | > 44.8
3 | Cc1ccc2c(C)c(C(=O)NCCN3CCCC(O)C3)oc2c1C (stereo not given) | 42.3 (≈ 128 µM)
4 | O=c1c2ccccc2nc2n1C(CSc1ccccc1)CS2 (stereo not given) | > 49
5 | Cc1cc(=O)[nH]c(-c2cccs2)n1 | > 28.8
6 | Cc1cc(C)n2nc(SCC(=O)N3CCC(C)CC3)nc2n1 | > 47.9
7 | O=C1CC(N2CCSCC2)C(=O)N1c1ccc(F)cc1 (stereo not given) | > 44.2
8 | COc1ccc(OCCN2C(=O)c3cccc(N)c3C2=O)cc1 | 1.1 (≈ 3.52 µM)
9 | N#Cc1ccccc1NC(=O)CN1CCN(Cc2ccccc2)CC1 | > 50.2
10 | C[Se]C[C@@H](N)C(=O)O.Cl | > 32.8
11 | O=C(NCCN1CCOCC1)c1ccc(Cl)cc1 | > 40.3
12 | CCN(CC(=O)N1CCCC1)S(=O)(=O)c1ccc(F)cc1 | 44.1 (≈ 140 µM)
13 | COC(=O)c1c(C)[nH]c(C(=O)/C=C/c2ccccc2F)c1C | 0.8 (≈ 2.66 µM)
14 | CC1=C(C(=O)OCc2ccccc2)C(c2cccc(F)c2)NC(=O)N1 (stereo not given) | 2.5 (≈ 7.35 µM)
15 | O=C(NCC(=O)N1CCCC(C(F)(F)F)C1)c1ccc(Oc2ccccc2)cc1 (stereo not given) | 36.3 (≈ 89.3 µM)
16 | COc1ccc2c(c1)c(C(=O)C(C)N1CCCCC1)c(C)n2C (stereo not given) | < 0.3
17 | COc1ccc(N2CCN(CC(=O)c3c[nH]c4ccccc34)CC2)cc1 | 1.9 (≈ 5.44 µM)
18 | Cc1cccc(OCC(=O)NCCCNC(=O)c2cccnc2)c1 | > 49.1
19 | Cc1cccc(NC(=O)NCCN2CCN(c3ccccc3)CC2)c1C | 11.5 (≈ 32.6 µM)
20 | CCN1C(=O)/C(=C/N2CCc3ccccc3C2)SC1=S | < 0.3
21 | Cc1ccc(C(=O)N2CCN(c3ccc([N+](=O)[O-])cc3)CC2)o1 | 40.2 (≈ 127 µM)
22 | CCCCOc1ccc(C(=O)N=c2sccn2C)cc1OC | 35.7 (≈ 111 µM)
23 | CC(C)CN1CCN(Cc2ccccc2C(F)(F)F)CC1CCO (stereo not given) | 48.7 (≈ 141 µM)
24 | CNc1nc(N)c([N+](=O)[O-])c(Nc2cccc(Cl)c2)n1 | 0.4 (≈ 1.36 µM)

Row | Compound | solubility kinetic [µg/mL]
25 | N#C/C(=C\c1cc(Br)ccc1F)C(=O)NC1CC1 | 13.1 (≈ 42.4 µM)
26 | c1ccc(-c2ccccc2OCCCCn2ccnc2)cc1 | 31.3 (≈ 107 µM)
27 | CC(=O)c1cccc(NC(=O)c2sc(Cl)nc2C)c1 | > 44.2
28 | Cc1ccnc(NC(=O)CCCc2c[nH]c3ccccc23)c1 | 4.3 (≈ 14.7 µM)
29 | CCOC(=O)c1sc2nc(C)nc(NC3CCC(O)CC3)c2c1C (stereo not given) | < 0.2
30 | Cc1cc(C)c2oc(C(=O)N3CCN(C)CC3)cc(=O)c2c1 | 27.2 (≈ 90.6 µM)
31 | NC(=O)c1cc[n+](Cc2ccccc2Cl)cc1.[Br-] | > 49.1
32 | CCOc1ccccc1C(=O)NN1CCOCC1 | > 37.5
33 | CCCCn1c(=S)[nH]c2cc(S(=O)(=O)N3CCOCC3)ccc21 | > 53.3
34 | O=C(NCC(=O)N1CCOCC1)OCc1ccccc1 | > 41.7
35 | CC(C)N(C(=O)Nc1ccc2nsnc2c1)C(C)C | > 41.8
36 | COC(=O)CSc1ncnc2c(C)csc12 | 29.9 (≈ 118 µM)
37 | Cc1cccc(N2N=C(C(=O)O)CCC2=O)c1 | > 34.8
38 | Cc1ccc(CCNC(=O)C2CCCN(S(C)(=O)=O)C2)cc1 (stereo not given) | > 48.7
39 | Cc1ccc(S(=O)(=O)N2CC=C(C(=O)NCCC(C)C)CC2)cc1 | 41.7 (≈ 119 µM)
40 | O=C(COC(=O)/C=C/c1ccccc1)NC(=O)NC1CCCCC1 | 8.8 (≈ 26.6 µM)
41 | O=C1Nc2c(ccc(Cl)c2Cl)C(=O)C1(F)c1ccccc1 (stereo not given) | < 0.7
42 | O=C(NCCO)C(=O)c1c(-c2ccccc2)cc2ccccn12 | 38.2 (≈ 124 µM)
43 | O=C(Cn1cnc2ccccc21)c1ccc(Cl)cc1 | 28.9 (≈ 107 µM)
44 | Cc1ccc(CNC(=O)c2cc(=O)c3ccccc3o2)cc1 | 3 (≈ 10.2 µM)
45 | CCn1c(Cc2ccc(OC)cc2)nc2ccccc21 | > 40
46 | Cc1ccc(NC(=O)c2cc(-c3ccc(F)cc3)on2)cc1C | 0.4 (≈ 1.29 µM)
47 | CC(C)COC(=O)n1c(SCC(N)=O)nc2ccccc21 | 16.3 (≈ 53 µM)
48 | Cc1ccc(S(=O)(=O)/N=C/c2c(O)ccc3ccccc23)cc1 | 30.8 (≈ 94.7 µM)

Row | Compound | solubility kinetic [µg/mL]
49 | Cc1ccc(CNC(=O)Cc2ccc(Br)cc2)cc1 | < 0.7
50 | O=C(NS(=O)(=O)c1ccccc1[N+](=O)[O-])c1ccccc1 | > 45.9
51 | C/C(=C\c1ccc2c(c1)OCO2)C(=O)c1c(C)cc(C)[nH]c1=O | > 46.7
52 | CCc1ccc(NC(=O)COC(=O)CC2CCCC2)cc1 | 26 (≈ 89.8 µM)
53 | CCn1cc(C2=NC(CC(C)C)CO2)c2ccccc21 (stereo not given) | 9.7 (≈ 35.9 µM)
54 | CC(C)(C)OC(=O)CN1C(=O)NC2(CCCc3ccccc32)C1=O (stereo not given) | > 49.6
55 | Cc1cc(C)cc(N2CC(C(=O)NC3CCCCC3)CC2=O)c1 (stereo not given) | 11.4 (≈ 36.3 µM)
56 | S=C(NCc1ccccc1)N1CCn2cccc2C1c1ccncc1 (stereo not given) | 45.2 (≈ 130 µM)
57 | CSc1ccc(CN2CCC(Cc3ccccc3)CC2)cc1 | 17.7 (≈ 56.8 µM)
58 | CCOCc1c(C(=O)NCC(c2ccco2)N2CCCC2)oc2ccccc12 (stereo not given) | 56.2 (≈ 147 µM)
59 | COc1ccc(CC(=O)NCCC2=CCCCC2)cc1 | > 41
60 | O=C(CSc1nnc(C2CC2)n1C1CC1)c1ccccc1F | > 47.6
61 | O=C(CNC(=O)c1ccccc1)NCCCSc1ccccc1 | 25.2 (≈ 76.7 µM)
62 | CC(C)[C@H](NC(=O)c1ccccc1Cl)C(=O)OCC(=O)NCc1ccc2c(c1)OCO2 | > 67
63 | CCOC(=O)Nc1ccc(S(=O)(=O)Nc2onc(C)c2C)cc1 | 47.2 (≈ 139 µM)
64 | Cc1nc(N)ncc1C(=O)Nc1ccccc1 | 19 (≈ 83.2 µM)
65 | O=C1NCCCCC1NS(=O)(=O)c1ccc(Cl)cc1 (stereo not given) | > 45.4
66 | O/N=C(\CN1CCCCC1)c1ccccc1 | > 32.7
67 | N#Cc1c(-c2ccccc2)nc(-c2cccnc2)[nH]c1=O | 40.2 (≈ 147 µM)
68 | COc1ccccc1CN(C)CC(=O)Nc1cccc2ccccc12 | 18.9 (≈ 56.5 µM)
69 | Cc1ccc(OCC(=O)NCCO)c(Br)c1 | > 43.2
70 | Cc1cc(C)c2ccc(Cl)cc2n1 | 1.5 (≈ 7.83 µM)
71 | COc1ccc(S(=O)(=O)NCCc2c[nH]c3ccc(C)cc23)cc1 | 17.3 (≈ 50.2 µM)
72 | O=C(CC(Nc1cccc(Cl)c1Cl)C(=O)O)c1ccccc1 (stereo not given) | 43.2 (≈ 128 µM)

Row | Compound | solubility kinetic [µg/mL]
73 | CC(=O)N[C@@H](CS)C(=O)O | > 24.5
74 | Cn1c(N)c(C(=O)COC(=O)COc2cc(Cl)c(Cl)cc2Cl)c(=O)n(C)c1=O | 4 (≈ 8.88 µM)
75 | CC1CCN(Cc2cc(=O)oc3ccc(C(C)C)cc23)CC1.Cl | 4
76 | O=C(O)C(NS(=O)(=O)c1ccccc1)C(O)c1ccccc1 (stereo not given) | 33.9 (≈ 105 µM)
77 | CC(=O)OC1CCC2(/C=N/O)C(=CCC3C4CCC(=O)C4(C)CCC32)C1 (stereo not given) | > 53.9
78 | CCN(C(=O)COC(=O)c1ccc(O)cc1)c1cccc2ccccc12 | 24.6 (≈ 70.4 µM)
79 | COc1cc(NC(=O)C2CC2)c(OC)cc1NC(=O)c1ccco1 | 3.6 (≈ 10.9 µM)
80 | COc1cccc(/C=C2\SC(=N)N(c3ccc(F)cc3)C2=O)c1 | 0.5 (≈ 1.52 µM)
81 | Cc1cc(-c2ccccc2)oc(=O)c1NC(=O)c1ccccc1 | < 0.7
82 | CCC(C(=O)OCCOCCN(CC)CC)c1ccccc1 (stereo not given) | 41.1 (≈ 134 µM)
83 | CNC(=O)C12CC3CC(C1)CC(c1ccc(C)cc1)(C3)C2 | 31.8 (≈ 112 µM)
84 | Cc1ccc(/C(O)=C/c2nc3cc(C)ccc3oc2=O)cc1 | 12 (≈ 40.9 µM)
85 | O=c1cc(-c2ccc([N+](=O)[O-])cc2)c2cc3c(cc2[nH]1)OCCO3 | 0.9 (≈ 2.78 µM)
86 | COc1cccc(C2CC(=O)Nc3cc(OC)c(OC)cc32)c1 (stereo not given) | 20.3 (≈ 64.8 µM)
87 | O=C(CNc1ccccc1C(=O)O)c1ccccc1 | 36.3 (≈ 142 µM)
88 | CCCCOc1cc(C(=O)OCCN(CC)CC)ccc1N | 42.7 (≈ 138 µM)
89 | COc1ccc(CCNC(=O)c2coc3ccccc3c2=O)cc1 | 1.7 (≈ 5.26 µM)
90 | Cn1c(N)c(C(=O)COc2ccc(C#N)cc2)c(=O)n(C)c1=O | 9.4 (≈ 29.9 µM)
91 | CC1(C)c2ccccc2N(CC(N)=O)C12C=Cc1ccccc1O2 (stereo not given) | 12.6 (≈ 39.3 µM)
92 | O=c1oc2ccccc2n1Cc1cccc(Cl)c1 | 0.8 (≈ 3.08 µM)
93 | COc1ccc(-c2nc3ccccc3o2)cc1OC | < 0.5
94 | O=C(CSc1ccccc1)NCCCc1ccccc1 | > 42.8
95 | COc1ccc(NC(C)=O)cc1C#N | 24.5 (≈ 129 µM)
96 | COC(=O)[C@H](CCSC)NC(=O)Nc1cccc(Br)c1 | > 54.2

Row | Compound | solubility kinetic [µg/mL]
97 | CCOc1cccc(CNc2nnnn2C)c1 | > 35
98 | O=C(NCc1cc2ccccc2[nH]1)c1ccccc1F | > 40.2
99 | COc1ccc(NC(=O)c2c(N)no[n+]2[O-])cc1 | 3 (≈ 12 µM)
100 | Cc1cccc(NC(=O)COC(=O)CN2CCCCCC2=O)c1C | > 49.9
101 | CC(C)c1ccc([N+](=O)[O-])cc1S(=O)(=O)N1CCN(C)CC1 | > 49.1
102 | N#CC1(N2CCN(C(=O)c3ccccc3)CC2)CCCCC1 | 35.9 (≈ 121 µM)
103 | Cc1cc(C)nc(Nc2ccccc2Cl)n1.Cl | 10.4
104 | CC(NC(=O)CN(C)Cc1cccc(Cl)c1)c1ccccc1 (stereo not given) | 38.6 (≈ 122 µM)
105 | Cc1ccc(C(=O)COc2nc(C)nc3ccccc23)cc1 | 4.3 (≈ 14.7 µM)
106 | O=C(Cc1c[nH]c2ccccc12)NCc1ccncc1 | > 39.8
107 | COc1ccc(CNC(=O)c2cc(=O)c3cc(C)c(C)cc3o2)cc1 | < 0.7
108 | N/C(Cc1ccc([N+](=O)[O-])cc1)=N\OC(=O)c1ccccc1F | 2.6 (≈ 8.19 µM)
109 | COc1ccc(CCOC(=O)c2cccc(NC(C)=O)c2)cc1 | > 47
110 | COc1ccccc1C(=O)NCc1ccco1 | > 34.7
111 | O=C(/C=C/c1cccc(C(F)(F)F)c1)N1CCN(c2ccccn2)CC1 | 4 (≈ 11.1 µM)
112 | Cc1cc[n+](CC2OCc3ccccc3CO2)cc1.[Br-] | > 50.4
113 | CN(C)C(CNC(=O)c1ccc2nccnc2c1)c1ccco1 (stereo not given) | 46.5 (≈ 150 µM)
114 | Cc1cccn2c(=O)c3cc(C(=O)NC4CCCCC4)c(=N)n(CCN4CCOCC4)c3nc12 | 52.2 (≈ 112 µM)
115 | Cc1ccc(NC(=O)c2cc(F)c(F)cc2Cl)nc1 | 12.8 (≈ 45.3 µM)
116 | CC(C)c1ccc(NC(=O)COC(=O)[C@@H]2CCCN2C(=O)c2cccs2)cc1 | 13.3 (≈ 33.2 µM)
117 | Nc1nc(NCCCN2CCOCC2)nc(Nc2cccc(F)c2)c1[N+](=O)[O-] | 6.3 (≈ 16.1 µM)
118 | O=C(Nc1ccccc1C(=O)Nc1ccc(Cl)cc1)c1cccnc1 | 0.6 (≈ 1.71 µM)
119 | Cc1cc(C(=O)N(C)CC(=O)Nc2ccc(F)c(F)c2F)no1 | > 49.1
120 | CC(C)OCCCNC(=O)C1CCN(S(=O)(=O)N2CCCC2)CC1 | > 54.2
